Laboratory results: US20220289766A1 (INFLAZOME LIMITED, priority 2019, published 2022)
Counter-ions that a name gives are not always drawn.

Tests used:
[1] = target: T1, NLRP3 (Homo sapiens, UniProt Q96P20); test: THP-1 cells pyroptosis assay; format: cell-based; parameters: Seed THP-1 cells (25,000 cells/well) containing 1.0 μg/ml LPS in 40 μl of RPMI medium; host or cells: THP-1 cells; conditions: LPS 1 μg/ml, compound 3 hrs, nigericin 5 μM 1 hr, resazurin readout
Method: THP-1 cells (ATCC #TIB-202) were grown in RPMI containing L-glutamine (Gibco #11835) supplemented with 1 mM sodium pyruvate (Sigma #S8636) and penicillin (100 units/ml)/streptomycin (0.1 mg/ml) (Sigma #P4333) in 10% Fetal Bovine Serum (FBS) (Sigma #F0804). The cells were routinely passaged and grown to confluency (˜10^6 cells/ml). On the day of the experiment, THP-1 cells were harvested and resuspended into RPMI medium (without FBS). The cells were then counted and viability ([…]) checked by Trypan blue (Sigma #T8154). Appropriate dilutions were made to give a concentration of 625,000 cells/ml. To this diluted cell solution was added LPS (Sigma #L4524) to give a 1 μg/ml Final Assay Concentration (FAC). 40 μl of the final preparation was aliquoted into each well of a 96-well plate. The plate thus prepared was used for compound screening.
The following method step-by-step assay was followed for compound screening. • 1. Seed THP-1 cells (25,000 cells/well) containing 1.0 μg/ml LPS in 40 μl of RPMI medium (without FBS) in 96-well, black walled, clear bottom cell culture plates coated with poly-D-lysine (VWR #734-0317) • 2. Add 5 μl compound (8 points half-log dilution, with 10 μM top dose) or vehicle (DMSO 0.1% FAC) to the appropriate wells • 3. Incubate for 3 hrs at 37° C., 5% CO2 • 4. Add 5 μl nigericin (Sigma #N7143) (FAC 5 μM) to all wells • 5. Incubate for 1 hr at 37° C., 5% CO2 • 6. At the end of the incubation period, spin plates at 300×g for 3 mins and remove supernatant • 7. Then add 50 μl of resazurin (Sigma #R7017) (FAC 100 μM resazurin in RPMI medium without FBS) and incubate plates for a further 1-2 hrs at 37° C. and 5% CO2 • 8. Plates were read in an Envision reader at Ex 560 nm and Em 590 nm • 9. IC50 data is fitted to a non-linear regression equation (log inhibitor vs response-variable slope 4-parameters)

[2] = target: T1, NLRP3; test: Human whole blood IL-1β release assay; format: cell-based; parameters: Plate out 80 μl of whole blood containing 1 μg/ml of LPS in 96-well, clear bottom cell culture plate; from tissue; host or cells: human whole blood from healthy donors; conditions: LPS 1 μg/ml, compound 3 hrs, nigericin 10 μM 1 hr, IL-1β by AlphaLisa, read-out: HWB IC50
Method: For systemic delivery, the ability to inhibit NLRP3 when the compounds are present within the bloodstream is of great importance. For this reason, the NLRP3 inhibitory activity of a number of compounds in human whole blood was investigated in accordance with the following protocol.
Human whole blood in Li-heparin tubes was obtained from healthy donors from a volunteer donor panel. • 1. Plate out 80 μl of whole blood containing 1 μg/ml of LPS in 96-well, clear bottom cell culture plate (Corning #3585) • 2. Add 10 μl compound (8 points half-log dilution with 10 μM top dose) or vehicle (DMSO 0.1% FAC) to the appropriate wells • 3. Incubate for 3 hrs at 37° C., 5% CO2 • 4. Add 10 μl nigericin (Sigma #N7143) (10 μM FAC) to all wells • 5. Incubate for 1 hr at 37° C., 5% CO2 • 6. At the end of the incubation period, spin plates at 300×g for 5 mins to pellet cells and remove […] of supernatant and add to 96-well v-bottom plates for IL-1β analysis (note: these plates containing the supernatants can be stored at −80° C. to be analysed at a later date) • 7. IL-1β was measured according to the manufacturer protocol (Perkin Elmer-AlphaLisa IL-1 Kit AL220F-5000) • 8. IC50 data is fitted to a non-linear regression equation (log inhibitor vs response-variable slope 4-parameters)

T1 sequence (Q96P20 whole entry): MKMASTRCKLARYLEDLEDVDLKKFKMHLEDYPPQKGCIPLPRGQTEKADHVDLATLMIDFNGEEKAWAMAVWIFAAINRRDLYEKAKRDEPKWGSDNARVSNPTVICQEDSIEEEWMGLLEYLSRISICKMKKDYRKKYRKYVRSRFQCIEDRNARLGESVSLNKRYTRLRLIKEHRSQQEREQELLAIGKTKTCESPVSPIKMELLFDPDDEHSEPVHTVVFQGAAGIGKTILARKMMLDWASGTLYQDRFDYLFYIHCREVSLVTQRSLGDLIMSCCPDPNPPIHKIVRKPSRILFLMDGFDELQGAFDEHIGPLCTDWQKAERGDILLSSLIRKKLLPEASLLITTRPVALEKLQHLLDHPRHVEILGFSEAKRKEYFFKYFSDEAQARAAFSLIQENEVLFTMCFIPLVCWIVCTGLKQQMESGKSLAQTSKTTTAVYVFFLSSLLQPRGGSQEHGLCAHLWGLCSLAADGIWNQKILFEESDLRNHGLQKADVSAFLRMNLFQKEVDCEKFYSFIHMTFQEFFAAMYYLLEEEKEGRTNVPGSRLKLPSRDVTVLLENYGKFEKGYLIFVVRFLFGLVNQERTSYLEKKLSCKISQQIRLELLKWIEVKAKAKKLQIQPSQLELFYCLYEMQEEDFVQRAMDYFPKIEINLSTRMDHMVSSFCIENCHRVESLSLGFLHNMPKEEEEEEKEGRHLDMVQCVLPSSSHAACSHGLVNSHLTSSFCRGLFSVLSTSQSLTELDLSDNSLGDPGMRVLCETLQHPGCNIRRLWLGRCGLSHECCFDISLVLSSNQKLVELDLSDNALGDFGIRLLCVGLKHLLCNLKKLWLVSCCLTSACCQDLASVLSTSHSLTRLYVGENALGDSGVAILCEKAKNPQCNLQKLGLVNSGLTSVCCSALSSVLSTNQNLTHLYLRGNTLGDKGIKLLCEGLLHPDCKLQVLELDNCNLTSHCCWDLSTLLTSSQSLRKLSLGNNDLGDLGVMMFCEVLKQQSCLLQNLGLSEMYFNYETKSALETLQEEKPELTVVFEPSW

| Compound | IC50 [1] | IC50 [2] |
| --- | --- | --- |
| CN1CCCOc2cc(ccn2)-c2ccc3c(c2NC(=O)NS(=O)(=O)c2cc(n(C4CC4)n2)C1)CCC3 [Example 14, 17-cyclopropyl-20-methyl-24-oxa-14λ^6-thia-11,13,16,17,20, 26-hexaazapentacyclo-[23.3.1.1^15,18.0^2,10.0^5,9]triaconta-1(28),2,4,9,15,18(30),25(29),26-octaene-12,14,14-trione] | 0.1 to 0.5 µM | 1 to 5 µM |
| O=C1Nc2c(ccc3c2CCC3)-c2ccnc(c2)OCCCOCc2cc(nn2C2CC2)S(=O)(=O)N1 [Example 15, 17-cyclopropyl-20,24-dioxa-14λ^6-thia-11,13,16,17,26-pentaazapentacyclo-[23.3.1.1^15,18.0^2,10.0^5,9]triaconta-1(28),2,4,9,15,18(30),25(29),26-octaene-12,14,14-trione] | ≤ 0.1 µM | 0.1 to 0.5 µM |
| CN(C)Cc1cc2nn1CCCCCOc1cc(ccn1)-c1ccc3c(c1NC(=O)NS2(=O)=O)CCC3 [Example 17, 17-[(dimethylamino)-methyl]-24-oxa-14λ^6-thia-11,13,18,26,30-pentaazapentacyclo-[23.3.1.1^15,18.0^2,10.0^5,9]triaconta-1(28),2,4,9,15(30),16,25(29),26-octaene-12,14,14-trione] | ≤ 0.1 µM | 0.5 to 1 µM |
| CN1CCOc2cc(ccn2)-c2ccc3c(c2NC(=O)NS(=O)(=O)c2ccn(n2)C(C)(C)C1)CCC3 [Example 18, 19,19,21-trimethyl-24-oxa-14λ^6-thia-11,13,18,21,26,30-hexaazapentacyclo-[23.3.1.1^15,18.0^2,10.0^5,9]triaconta-1(28),2,4,9,15(30),16,25(29),26-octaene-12,14,14-trione] | 0.1 to 0.5 µM | 0.5 to 1 µM |
| O=C1Nc2c(ccc3c2CCC3)-c2ccnc(c2)OCCCCCS(=O)(=O)N1 [Example 19, 20-oxa-14λ^6-thia-11,13,22-triazatetracyclo-[19.3.1.0^2,10.0^5,9]triaconta-1(24),2,4,9,21(25),22-hexaene-12,14,14-trione] | 0.5 to 1 µM | 0.5 to 1 µM |
| O=C1Nc2c(ccc3c2CCC3)-c2ccnc(c2)OCCn2ccc(n2)S(=O)(=O)N1 [Example 20, 21-oxa-14λ^6-thia-11,13,18,23,27-pentaazapentacyclo-[20.3.1.1^15,18.0^2,10.0^5,9]heptacosa-1(25),2,4,9,15(27),16,22(26),23-octaene-12,14,14-trione] | ≤ 0.1 µM | 0.1 to 0.5 µM |
| CN(C)Cc1cc2nn1CCCOc1cc(ccn1)-c1ccc3c(c1NC(=O)NS2(=O)=O)CCC3 [Example 22, 17-[(dimethylamino)-methyl]-22-oxa-14λ^6-thia-11,13,18,24,28-pentaazapentacyclo-[21.3.1.1^15,18.0^2,10.0^5,9]octacosa-1(26),2,4,9,15(28),16,23(27),24-octaene-12,14,14-trione] | 0.1 to 0.5 µM | 0.1 to 0.5 µM |
| O=C1Nc2c(ccc3c2CCC3)-c2ccnc(c2)OCCCn2cc(F)c(n2)S(=O)(=O)N1 [Example 23, 16-fluoro-22-oxa-14λ^6-thia-11,13,18,24,28-pentaazapentacyclo-[21.3.1.1^15,18.0^2,10.0^5,9]octacosa-1(26),2,4,9,15(28),16,23(27),24-octaene-12,14,14-trione] | 0.1 to 0.5 µM | 0.1 to 0.5 µM |
| Cc1cc2c(c3c1-c1ccnc(c1)OCC(C)(C)n1ccc(n1)S(=O)(=O)NC(=O)N3)CCC2 [Example 24, 3,19,19-trimethyl-21-oxa-14λ^6-thia-11,13,18,23,27-pentaazapentacyclo-[20.3.1.1^15,18.0^2,10.0^5,9]heptacosa-1(25),2(10),3,5(9),15(27),16,22(26),23-octaene-12,14,14-trione, Sodium Salt] | ≤ 0.1 µM | 0.1 to 0.5 µM |
| O=C1Nc2c(ccc3c2CCC3)-c2ccnc(c2)OCCn2cc(F)c(n2)S(=O)(=O)N1 [Example 25, 16-fluoro-21-oxa-14λ^6-thia-11,13,18,23,27-pentaazapentacyclo-[20.3.1.1^15,18.0^2,10.0^5,9]heptacosa-1(25),2,4,9,15(27),16,22(26),23-octaene-12,14,14-trione] | ≤ 0.1 µM | ≤ 0.1 µM |
| Cc1cc2c(c3c1-c1ccnc(c1)OCC(C)(C)n1cc(F)c(n1)S(=O)(=O)NC(=O)N3)CCC2 [Example 26] | ≤ 0.1 µM | 0.1 to 0.5 µM |
| CC1(C)COc2cc(ccn2)-c2ccc3c(c2NC(=O)NS(=O)(=O)c2nn1cc2F)CCC3 [Example 27, 16-fluoro-19,19-dimethyl-21-oxa-14λ^6-thia-11,13,18,23,27-pentaaza-pentacyclo[20.3.1.1^15,18.0^2,10.0^5,9]-heptacosa-1(25),2,4,9,15(27),16,22(26),23-octaene-12,14,14-trione, sodium salt] | ≤ 0.1 µM | 0.1 to 0.5 µM |
| Cc1cc2c(c3c1-c1ccnc(c1)OCCn1ccc(n1)S(=O)(=O)NC(=O)N3)CCC2 [Example 28, 3-methyl-21-oxa-14λ^6-thia-11,13,18,23,27-pentaazapentacyclo-[20.3.1.1^15,18.0^2,10.0^5,9]heptacosa-1(25),2(10),3,5(9),15(27),16,22(26),23-octaene-12,14,14-trione, sodium salt] | ≤ 0.1 µM | 0.1 to 0.5 µM |
| Cc1cc2c(c3c1-c1ccnc(c1)OCCn1cc(F)c(n1)S(=O)(=O)NC(=O)N3)CCC2 [Example 29, 16-fluoro-3-methyl-21-oxa-14λ^6-thia-11,13,18,23,27-pentaaza-pentacyclo[20.3.1.1^15,18.0^2,10.0^5,9]-heptacosa-1(25),2(10),3,5(9),15(27),16,22(26),23-octaene-12,14,14-trione, sodium salt] | ≤ 0.1 µM | 0.1 to 0.5 µM |
| CC(C)c1cc(F)cc2c1NC(=O)NS(=O)(=O)c1nn(cc1F)C(C)(C)COc1cc-2ccn1 [Example 30, 4,13-difluoro-16,16-dimethyl-6-(propan-2-yl)-18-oxa-11λ^6-thia-8,10,15,20,24-pentaazatetracyclo-[17.3.1.1^12,15.0^2,7]tetracosa-1(22),2(7),3,5,12(24),13,19 (23),20-octaene-9,11,11-trione, sodium salt] | ≤ 0.1 µM | 0.1 to 0.5 µM |
| O=C1Nc2c(ccc3c2CCC3)-c2ccnc(c2)OCCc2cccc(c2)S(=O)(=O)N1 [Example 31, 22-oxa-14λ^6-thia-11,13,24-triaza-pentacyclo-[21.3.1.1^15,19.0^2,10.0^5,9]-octacosa-1(26),2,4,9,15(28),16,18,23(27),24-nonaene-12,14,14-trione, sodium salt] | ≤ 0.1 µM | 0.1 to 0.5 µM |
| CC1(C)COc2nccc(c2F)-c2ccc3c(c2NC(=O)NS(=O)(=O)c2ccn1n2)CCC3 [Example 32, 26-fluoro-19,19-dimethyl-21-oxa-14λ^6-thia-11,13,18,23,27-pentaaza-pentacyclo[20.3.1.1^15,18.0^2,10.0^5,9]-heptacosa-1(26),2,4,9,15(27),16,22,24-octaene-12,14,14-trione, sodium salt] | 0.1 to 0.5 µM | 0.1 to 0.5 µM |
| Cc1cnc2cc1-c1ccc3c(c1NC(=O)NS(=O)(=O)c1ccn(n1)C(C)(C)CO2)CCC3 [Example 33, 19,19,25-trimethyl-21-oxa-14λ^6-thia-11,13,18,23,27-pentaaza-pentacyclo-[20.3.1.1^15,18.0^2,10.0^5,9]-heptacosa-1(26),2,4,9,15(27),16,22,24-octaene-12,14,14-trione, sodium salt] | 0.5 to 1 µM | 1 to 5 µM |
